Legend:
[1] = test system: rats subjected to 4 hours coronary ligation; experiment: Area at risk and infarct size after 4 hours coronary ligation (triphenyl tetrazolium chloride-Evan's blue staining); format: in vivo, rat; details: L-NAME 1x10^-3 g/kg
Experimental: Infarct size was determined by the triphenyl tetrazolium chloride-Evan's blue staining technique. The rat was sacrificed after its left descending coronary artery had been occluded for 4 hours. The weight of infarct tissue was expressed as a percentage of total ventricular weight or occluded zone. The difference in infarct size was statistically analyzed using unpaired Student's t-test. Table 4 Area at risk and infarct size in vehicle and THP-treated rats subjected to 4 hours coronary ligation
The difference in ischemic area and infarct size shown by staining technique after 4 hours of ischemia is evaluated. […] In the vehicle group, the necrotic area expresses either as a percentage of the area at risk (45.2±1.0%) or as a percentage of the total ventricle (19.8±2.2%), indicating the amount of cardiac tissue at risk becomes necrotic. Administration of THP reduces myocardial necrosis extension in a dose dependent manner. This reduction is observed either in the necrotic area/area at risk (38.1±5.0%, 29.0±2.5% and 10.7±1.8%/with 3.5x10^-7, 10^-6, 10^-5 g/kg of THP, respectively) or in the necrotic area/total ventricle (17.9+2.3%, 13.4±1.2% and 5.0±0.9% with 3.5x10^-7, 10^-6, 10^-5 g/kg of THP, respectively).

[2] = test system: AV node conduction; experiment: His bundle electrogram of isolated heart, Langendorff perfusion, atrial pacing at 300 ms cycle length; design: species or system rats and guinea pigs; details: for atrial effective refractory period (AERP): before drug THP 60 ms, quinidine 40 ms; for ventricular effective refractory period (VERP): before drug THP 160 ms, quinidine 180 ms; for AV node effective refractory period (AVNERP): before drug THP 170 ms, quinidine 130 ms; for wenckbach cycle length (WCL): before drug THP 200 ms, quinidine 150 ms
Experimental: The investigation conforms to the Guide for the Care and Use of Laboratory Animals published by the US National Institutes of Health (NIH publication No. 85-23, revised 1996). Adult rats and guinea pigs were killed after hepariniation and anesthetization with urethane (1.25 g/kg i.p.). After isolating the heart, the aorta was perfused with 10µM quinidine and THP, respectively, by Langendorff perfusion. A pair of bipolar electrodes connected with silver wire were placed on the tip of the Triangle of Koch to record the His bundle electrogram. In addition, another pair of bipolar electrodes connected with silver wire were placed on the surface of the right ventricle to record T wave. […] The QT interval, conduction time through the sinoatrial (SA interval), the atrioventricular node (AH interval) and His-purkinje system (HV interval) were recorded, respectively, using electrocardiograph. Similarly, the recovery curve of His-purkinje system (i.e. the relationship of H2V2 and V1H2), atrial and ventricular refractory period and AV node refractory period were also recorded in the same manner. 1 and 2.
The SA, AH, HV intervals and T wave are prolonged in the quinidine-treated heart (FIG. 1). […] In addition, 3, 10 and 30µM THP can prolong the atrial effective refractory period (AERP) from 60 ms to 90, 100 and 120 ms, respectively; the ventricular effective refractory period (VERP) from 160 ms to 160, 170 and 190 ms, respectively; and the AV node effective refractory period (AVNERP) from 170 ms to 170, 200 and 240 ms, respectively. When compared with THP in the same manner, 3,10 and 30µM quinidine can prolong the AERP from 40 ms to 60, 80 and 130 ms; the VERP from 180 ms to 170, 180 and 190 ms; and the AVNERP from 130 ms to 150, 200 and 245 ms, respectively. Further, 3, 10 and 30µM THP can change the wenckbach cycle length (WCL) from 200 ms to 210, 230 and 280 ms, respectively; whereas 3, 10 and 30µM quinidine can change the WCL from 150 ms to 170, 210 and 300 ms, respectively. Both THP and quinidine prolong AERP, VERP and AVNERP, however, only quinidine inhibits conduction in AV node (prolonged AH interval). In contrast, even when the THP concentration raised to 10µM, the conduction in AV node is not inhibited.

[3] = test system: guinea pig right ventricular strips; experiment: Ouabain-induced arrhythmia in electrically driven right ventricular strips; details: 10-20µM after 0.6-0.8µM ouabain
Experimental: The arrhythmia was then induced 5-10 minutes after. 10-20µM THP or its derivatives were administered to reverse the ouabain-induced arrhythmia. 6-7.
Referring to FIGs. […] The arrhythmia is then induced 5-10 minutes after.

COC(=O)[C@@H](N)CCCNC(=N)N[N+](=O)[O-] [L-NAME, N^∞-nitro-L-arginine methyl ester, reference compound]
Area at risk (% of ventricle) [1]: 47.5±0.2 % of ventricle | Necrotic (% of Area at risk) [1]: 45.1±7.2 % of Area at risk | Necrotic (% of ventricle) [1]: 21.4±3.5 % of ventricle

C=C[C@H]1C[N@@]2CC[C@H]1C[C@@H]2[C@@H](O)c1ccnc2ccc(OC)cc12 [quinidine]
atrial effective refractory period (AERP) ([2]; 3µM): 60 ms | ventricular effective refractory period (VERP) ([2]; 3µM): 170 ms | AV node effective refractory period (AVNERP) ([2]; 3µM): 150 ms | wenckbach cycle length (WCL) ([2]; 3µM): 170 ms | AH interval (conduction in AV node) ([2]; 10µM, isolated perfused heart): prolonged | HV interval ([2]; 10µM, isolated perfused heart): prolonged | SA interval ([2]; 10µM, isolated perfused heart): prolonged | T wave ([2]; 10µM, isolated perfused heart): prolonged | atrial effective refractory period (AERP) ([2]; 10µM): 80 ms | ventricular effective refractory period (VERP) ([2]; 10µM): 180 ms | AV node effective refractory period (AVNERP) ([2]; 10µM): 200 ms | wenckbach cycle length (WCL) ([2]; 10µM): 210 ms | atrial effective refractory period (AERP) ([2]; 30µM): 130 ms | ventricular effective refractory period (VERP) ([2]; 30µM): 190 ms | AV node effective refractory period (AVNERP) ([2]; 30µM): 245 ms | wenckbach cycle length (WCL) ([2]; 30µM): 300 ms | reversal of ouabain-induced arrhythmia [3]: does not reveal the efficacy

From EP1311486B1, “USES OF THALIPORPHINE OR ITS DERIVATIVES IN TREATMENT OF CARDIAC DISEASES AND PREPARATION OF SAME” (Lotus Pharmaceutical Co., Ltd., priority 2000, dated 2002)
